This passage reports IC50 results from US20250376464A1 (Trawsfynydd Therapeutics, Inc., priority 2022, published 2025).

This test has as its target SARS-CoV2-Mpro (Severe acute respiratory syndrome coronavirus 2 (2019-nCoV) (SARS-CoV-2), UniProt P0DTD1). As to the kind of experiment: Primary assay: SARS-CoV2-Mpro enzymatic activity inhibition. The settings on record: enzyme preincubated with compound for 20 min; slope of linear portion of signal. The format is biochemical. Here is the method: Example A. Primary Assay Used to Determine Potency of SARS-CoV2-Mpro Enzymatic Activity Inhibition
• (1) Deliver 2× Enzyme • (2) Deliver buffer into No Enzyme wells • (3) Deliver compounds in 100% DMSO by using Acoustic technology (Echo550; nanoliter range) • (4) Incubate for 20 min • (5) Deliver 2× Substrate to initiate the reaction • (6) Spin & shake, start measuring in EnVision at rt; 5 min interval for 25 (2 hours) • (7) Analyze data by taking slope (signal/time) of linear portion of measurement • (8) Slope is calculated by using Excel, and curve fits are performed using Prism software.
The % inhibition was then used to calculate the IC50 values. The IC50 values are shown in Table A, wherein “A” corresponds to IC50<10.0 nm, “B” corresponds to 10.0 nm≤IC50<50.0 nm, “C” corresponds to 50.0 nm≤IC50<100.0 nm, “D” corresponds to 100.0 nm≤IC50<500.0 nm, and “E” corresponds to 500.0 nm≤IC50<1000.0 nm, and “F” corresponds to 1000.0 nm≤IC50.
The term IC50 denotes the concentration that inhibits the measured activity by half. For the compound `CC(C)(C)[C@H](NC(=O)C(F)(F)F)C(=O)N1CCC2(CC2)CC1C(=O)N[C@H](C#N)C[C@@H]1CCNC1=O` (mixture of isomers) [Compound 206, N—((S)-1-Cyano-2-((S)-2-oxopyrrolidin-3-yl)ethyl)-6-((S)-3,3-dimethyl-2-(2,2,2-trifluoroacetamido)butanoyl)-6-azaspiro[2.5]octane-5-carboxamide], the half-maximal inhibitory concentration (IC50) is 10 to 50 nM.
To `CC(C)(C)[C@H](NS(C)(=O)=O)C(=O)N1C[C@H]2C([C@H]1C(=O)N[C@H](C#N)C[C@@H]1CCNC1=O)C2(C)C` (stereo in doubt) [Compound 201, (1R,2S,5S)—N—((S)-1-Cyano-2-((S)-2-oxopyrrolidin-3-yl)ethyl)-3-((S)-3,3-dimethyl-2-(methylsulfonamido)butanoyl)-6,6-dimethyl-3-azabicyclo[3.1.0]hexane-2-carboxamide] belongs 10 to 50 nM; to `CC(C)(C)[C@H](NS(=O)(=O)CC(F)(F)F)C(=O)N1C[C@H]2C([C@H]1C(=O)N[C@H](C#N)C[C@@H]1CCNC1=O)C2(C)C` (stereo in doubt) [Compound 209, (1R,2S,5S)—N-[(1S)-1-cyano-2-[(3S)-2-oxopyrrolidin-3-yl]ethyl]-3-[(2S)-3,3-dimethyl-2-(2,2,2-trifluoroethylsulfonylamino)butanoyl]-6,6-dimethyl-3-azabicyclo[3.1.0]hexane-2-carboxamide], 10 to 50 nM; to `CC(C)(C)[C@H](NC(=O)C(F)(F)F)C(=O)N1C[C@H]2C([C@H]1C(=O)N[C@H](C#N)CC1C(=O)Nc3ccccc31)C2(C)C` (stereo in doubt) [Compound 217, (1R,2S,5S)—N-((1S)-1-Cyano-2-(2-oxoindolin-3-yl)ethyl)-3-((S)-3,3-dimethyl-2-(2,2,2-trifluoroacetamido)butanoyl)-6,6-dimethyl-3-azabicyclo[3.1.0]hexane-2-carboxamide], below 10 nM.
To `CC(C)(C)[C@H](NC(=O)C(F)(F)F)C(=O)N1C[C@H]2C([C@H]1C(=O)NC(C#N)CC1(F)C(=O)Nc3ccccc31)C2(C)C` (stereo in doubt) [Compound 227, (1S,2S,5S)-N-[1-cyano-2-(3-fluoro-2-oxo-indolin-3-yl)ethyl]-3-[(2S)-3,3-dimethyl-2-[(2,2,2-trifluoroacetyl)amino]butanoyl]-6,6-dimethyl-3-azabicyclo[3.1.0]hexane-2-carboxamide] belongs 10 to 50 nM; to `CC(C)(C)[C@H](NC(=O)C(F)(F)F)C(=O)N1C[C@H]2C(C1C(=O)N[C@H](C#N)CC1(F)C(=O)Nc3ccccc31)C2(C)C` (stereo in doubt) [Compound 228, (1S,2S,5S)-N-[(1S)-1-cyano-2-(3-fluoro-2-oxo-indolin-3-yl)ethyl]-3-[(2S)-3,3-dimethyl-2-[(2,2,2-trifluoroacetyl)amino]butanoyl]-6,6-dimethyl-3-azabicyclo[3.1.0]hexane-2-carboxamide], 10 to 50 nM; to `Cc1ccc2c(c1)C(F)(CC(C#N)NC(=O)C1C3[C@H](CN1C(=O)[C@@H](NC(=O)C(F)(F)F)C(C)(C)C)C3(C)C)C(=O)N2` (stereo in doubt) [Compound 229, (1S,2S,5S)-N-[1-cyano-2-(3-fluoro-5-methyl-2-oxo-indolin-3-yl)ethyl]-3-[(2S)-3,3-dimethyl-2-[(2,2,2-trifluoroacetyl)amino]butanoyl]-6,6-dimethyl-3-azabicyclo[3.1.0]hexane-2-carboxamide], 10 to 50 nM.
To `Cc1ccc2c(c1)C(CC(C#N)NC(=O)C1C3[C@H](CN1C(=O)[C@@H](NC(=O)C(F)(F)F)C(C)(C)C)C3(C)C)C(=O)N2` (stereo in doubt) [Compound 230, (1S,2S,5S)-N-[1-cyano-2-(5-methyl-2-oxo-indolin-3-yl)ethyl]-3-[(2S)-3,3-dimethyl-2-[(2,2,2-trifluoroacetyl)amino]butanoyl]-6,6-dimethyl-3-azabicyclo[3.1.0]hexane-2-carboxamide] belongs 10 to 50 nM; to `CN(C(=O)[C@@H]1C2[C@H](CN1C(=O)[C@@H](NC(=O)C(F)(F)F)C(C)(C)C)C2(C)C)[C@H](C#N)CC1C(=O)Nc2ccccc21` (stereo in doubt) [Compound 231, (1S,2S,5S)-N-[(1S)-1-cyano-2-(2-oxoindolin-3-yl)ethyl]-3-[(2S)-3,3-dimethyl-2-[(2,2,2-trifluoroacetyl)amino]butanoyl]-N,6,6-trimethyl-3-azabicyclo[3.1.0]hexane-2-carboxamide], 50 to 100 nM.
`CC(C)(C)[C@H](NC(=O)C(F)(F)F)C(=O)N1C[C@H]2C([C@H]1C(=O)N[C@H](C#N)CC1C(=O)Nc3ccc(Br)cc31)C2(C)C` (stereo in doubt) [Compound 232, (1S,2S,5S)-N-[(1S)-2-(5-bromo-2-oxo-indolin-3-yl)-1-cyano-ethyl]-3-[(2S)-3,3-dimethyl-2-[(2,2,2-trifluoroacetyl)amino]butanoyl]-6,6-dimethyl-3-azabicyclo[3.1.0]hexane-2-carboxamide]: the IC50 lay in the range of 10 to 50 nM.
To `CC(C)(C)[C@H](NC(=O)C(F)(F)F)C(=O)N1C[C@H]2C([C@H]1C(=O)N[C@H](C#N)CC1C(=O)Nc3cc(Br)ccc31)C2(C)C` (stereo in doubt) [Compound 233, (1S,2S,5S)-N-[(1S)-2-(6-bromo-2-oxo-indolin-3-yl)-1-cyano-ethyl]-3-[(2S)-3,3-dimethyl-2-[(2,2,2-trifluoroacetyl)amino]butanoyl]-6,6-dimethyl-3-azabicyclo[3.1.0]hexane-2-carboxamide] belongs 50 to 100 nM.
Regarding `Cc1cccc2c1C(C[C@@H](C#N)NC(=O)[C@@H]1C3[C@H](CN1C(=O)[C@@H](NC(=O)C(F)(F)F)C(C)(C)C)C3(C)C)C(=O)N2` (stereo in doubt) [Compound 234, (1S,2S,5S)-N-[(1S)-1-cyano-2-(4-methyl-2-oxo-indolin-3-yl)ethyl]-3-[(2S)-3,3-dimethyl-2-[(2,2,2-trifluoroacetyl)amino]butanoyl]-6,6-dimethyl-3-azabicyclo[3.1.0]hexane-2-carboxamide], the IC50 is 500 to 1000 nM.
To `CC(C)(C)[C@H](NC(=O)C(F)(F)F)C(=O)N1C[C@H]2C([C@H]1C(=O)N[C@H](C#N)CC1C(=O)Nc3c(Cl)cccc31)C2(C)C` (stereo in doubt) [Compound 235, (1S,2S,5S)-N-[(1S)-2-(7-chloro-2-oxo-indolin-3-yl)-1-cyano-ethyl]-3-[(2S)-3,3-dimethyl-2-[(2,2,2-trifluoroacetyl)amino]butanoyl]-6,6-dimethyl-3-azabicyclo[3.1.0]hexane-2-carboxamide] belongs below 10 nM; to `CC(C)(C)[C@H](NC(=O)C(F)(F)F)C(=O)N1C[C@H]2C([C@H]1C(=O)N[C@H](C#N)CC1C(=O)Nc3ccc(F)cc31)C2(C)C` (stereo in doubt) [Compound 236, (1S,2S,5S)-N-[(1S)-1-cyano-2-(5-fluoro-2-oxo-indolin-3-yl)ethyl]-3-[(2S)-3,3-dimethyl-2-[(2,2,2-trifluoroacetyl)amino]butanoyl]-6,6-dimethyl-3-azabicyclo[3.1.0]hexane-2-carboxamide], 10 to 50 nM; to `CC(C)(C)[C@H](NS(C)(=O)=O)C(=O)N1C[C@H]2C([C@H]1C(=O)N[C@H](C#N)CC1C(=O)Nc3ccccc31)C2(C)C` (stereo in doubt) [Compound 237, (1S,2S,5S)-N-[(1S)-1-cyano-2-(2-oxoindolin-3-yl)ethyl]-3-[(2S)-2-(methanesulfonamido)-3,3-dimethyl-butanoyl]-6,6-dimethyl-3-azabicyclo[3.1.0]hexane-2-carboxamide], below 10 nM.
To `CC(C)(C)[C@H](NS(C)(=O)=O)C(=O)N1C[C@H]2C([C@H]1C(=O)N[C@H](C#N)C[C@@H]1C(=O)Nc3ccccc31)C2(C)C` (stereo in doubt) [Compound 238, (1S,2S,5S)-N-[(1S)-1-cyano-2-(2-oxoindolin-3-yl)ethyl]-3-[(2S)-2-(methanesulfonamido)-3,3-dimethyl-butanoyl]-6,6-dimethyl-3-azabicyclo[3.1.0]hexane-2-carboxamide] belongs below 10 nM; to `CC(C)(C)[C@H](NC(=O)C(F)(F)F)C(=O)N1C[C@H]2C([C@H]1C(=O)N[C@H](C#N)C[C@]1(C)C(=O)Nc3ccccc31)C2(C)C` (stereo in doubt) [Compound 239, (1S,2S,5S)-N-[1-cyano-2-(3-methyl-2-oxo-indolin-3-yl)ethyl]-3-[(2S)-3,3-dimethyl-2-[(2,2,2-trifluoroacetyl)amino]butanoyl]-6,6-dimethyl-3-azabicyclo[3.1.0]hexane-2-carboxamide], at least 1000 nM.
The value for `COC(=O)N[C@H](C(=O)N1C[C@H]2C([C@H]1C(=O)N[C@H](C#N)CC1C(=O)Nc3ccccc31)C2(C)C)C(C)(C)C` (stereo in doubt) [Compound 243, Methyl N-[(1S)-1-[(1S)-2-[[(1S)-1-cyano-2-(2-oxoindolin-3-yl)ethyl]carbamoyl]-6,6-dimethyl-3-azabicyclo[3.1.0]hexane-3-carbonyl]-2,2-dimethyl-propyl]carbamate] was below 10 nM.
For `CCOC(=O)N[C@H](C(=O)N1C[C@H]2C([C@H]1C(=O)N[C@H](C#N)CC1C(=O)Nc3ccccc31)C2(C)C)C(C)(C)C` (stereo in doubt) [Compound 244, Ethyl N-[(1S)-1-[(1S)-2-[[(1S)-1-cyano-2-(2-oxoindolin-3-yl)ethyl]carbamoyl]-6,6-dimethyl-3-azabicyclo[3.1.0]hexane-3-carbonyl]-2,2-dimethyl-propyl]carbamate], the IC50 lay within 10 to 50 nM.
